From US20230139506A1, “HETEROCLITIC CANCER VACCINES” (MEMORIAL SLOAN KETTERING CANCER CENTER, priority 2020, published 2023)

Columns and labels:
RMA/SpER-CALR9p2 tumors = assay: Tumor growth experiments with RMA/SpER-CALR9p2 tumors; assay type: in vivo, mouse
Experimental: (§1) All peptides were purchased as custom peptide synthesis orders from GenScript at a purity of >98% and resuspend at 10 mg/mL in DMSO (Sigma). For peptide vaccines, peptides were diluted in PBS and emulsified with Titermax® (Titermax USA, Inc) at a 1:1 ratio immediately prior to immunization, such that each dose was composed of 10 μg peptide in a total volume of 25 uL. In control (DMSO) immunization, an equivalent volume of DMSO is substituted for the diluted peptide in the TiterMax® emulsion. For subsequent in vitro assays, draining inguinal and popliteal lymph nodes were collected at indicated time points and CD8+ T cells were isolated using positive magnetic sorting using mouse CD8a (Ly-2) MicroBeads (Miltenyi Biotec). DNA vaccines were performed using a gene gun as previously described (27, 63) according to indicated time points. Briefly, mice received four injections (400 lbs/inch2) of DNA-coated gold particles into the abdominal region of the skin for a total 4 μg of DNA per dose. DNA plasmids encoding the wildtype or 52 base-pair deletion CALRMUT sequences fused with the flag sequence are as previously described (64). For pING-OVA, the full-length chicken ovalbumin sequence was cloned into the pING plasmid (65). CD8+ T cells were collected as before, but only from draining inguinal lymph nodes. To test for antigen-specificity, the mouse IFNγ ELISpot set (BD) was used according to the manufacturer's instructions. Briefly, CD8+ T cells were frozen immediately after purification in FBS containing 10% DMSO, thawed one day prior to restimulation and allowed to recover overnight in 20 U/mL IL-2 (Peprotech) RPMI-1640 medium containing 10% fetal bovine serum (FBS), Na-Pyruvate, L-glutamine and Penicillin/Streptomycin. As a source of antigen-presenting cells (APCs), splenocytes from naïve mice were depleted of T cells using magnetic microbeads for CD8a (Ly2) and CD4 (L3T4) (Miltenyi Biotec), pulsed for one hour with 100 μg/mL peptide at 37° C. followed by a wash. For each well, 105 CD8+ T cells were co-culture with 1×105-3×105 peptide-pulsed APCs and incubated for approximately 18 hours. Spots were counted using the ImmunoSpot analyzer (Cellular Technology Limited).
RMA/S cells were maintained in RPMI 1640 medium supplemented with 7.5% inactivated FBS, 1×non-essential amino acids and 2 mM L-glutamine. The DNA sequence encoding the CALR9p2 peptide (bold) was cloned into the PresentER-IRES-GFP (38) construct using the following oligo:
following SfiI digestion and T4 ligation (New England Biolabs). The resulting construct was used to generate retrovirus by co-transfection with pCL-Ampho into ecotropic Pheonix cells (ATCC). Viral supernatants were collected at 48 and 72 hours, pooled and Retro-X Concentrator (Takara Bio USA)-concentrated retrovirus was used to transduce RMA/S cells by spinoculation using polybrene (Sigma). GFP-positive cells were FACS sorted (BD FACSAria III) and cultured in 4 μg/mL puromycin (Gibco) media. A total of 5×10^6 cells were injected subcutaneously in the flank of mice. For anti-PD1 treatment, 250 μg of RMP1-14 was injected intra-peritoneally in PBS at indicated time points.

C57BL/6J mice = assay: Peptide immunization (Titermax adjuvant) and IFNγ ELISpot of CD8+ T cells from draining lymph nodes; assay type: in vivo, mouse; details: for CALR9p2-specific CD8+ T cell response: peptide emulsified in Titermax adjuvant, secondary restimulation with CALR9p2
Experimental: as §1

CD8+ T cells = assay: CALR9p2(T5F)-tetramer staining and flow cytometry of CD8+ T cells from immunized mice; assay type: in vivo, mouse
peptide-pulsed B16 cells = assay: Killing assay of peptide-pulsed B16 cells by CD8+ T cells isolated from peptide-immunized mice; assay type: cell-based, mouse; details: CD8+ T cells from mice immunized with a single dose
H-2Kb = molecular target: T1, H-2Kb (Mus musculus, UniProt P01901); assay: MHC-I stabilization assay using TAP-deficient RMA/S cells; assay type: cell-based, murine
T1 construct: its ability to stabilize MHC-I in the H-2Kb-expressing TAP-deficient RMA/S cell line; endogenous in cells; host or cells: RMA/S cells (murine, TAP-deficient)
T1 sequence (P01901 22-369): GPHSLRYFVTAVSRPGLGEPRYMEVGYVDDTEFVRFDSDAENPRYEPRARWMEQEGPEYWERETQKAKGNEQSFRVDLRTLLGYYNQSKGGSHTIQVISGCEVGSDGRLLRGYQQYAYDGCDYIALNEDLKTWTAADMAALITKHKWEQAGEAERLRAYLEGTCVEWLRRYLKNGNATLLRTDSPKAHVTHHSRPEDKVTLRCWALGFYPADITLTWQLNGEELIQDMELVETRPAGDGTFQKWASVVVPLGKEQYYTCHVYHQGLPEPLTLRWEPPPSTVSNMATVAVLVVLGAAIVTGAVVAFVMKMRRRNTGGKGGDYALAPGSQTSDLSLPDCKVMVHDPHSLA
T1 sequence (P01887 21-119 partner): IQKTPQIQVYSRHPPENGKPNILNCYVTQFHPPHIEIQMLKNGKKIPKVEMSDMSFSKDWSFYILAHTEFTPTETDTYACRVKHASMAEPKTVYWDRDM
Experimental: (§2) To test peptide binding to murine H-2Kb or human HLA-A*02:01, TAP-deficient RMA/S and T2 cells were used, respectively, as previously reported (59, 60). […] T2 cells (62) were serum-starved in serum-free RPMI media overnight and […] at indicated final concentrations for 16 hours before measuring HLA-A*02:01 levels by flow cytometry (BD; Clone BB7.2). The […] (SEQ ID NO. 287) peptide was acquired as a custom order from Genscript.

HLA-A*02:01 = molecular target: T2, HLA-A*02:01 (Homo sapiens, UniProt P04439, D140Y/D185E/D98H/E176V/E277Q/G131W/G231S/I119V/I121R/I166T/I218V/L300P/L318F/N151K/N90K/P208A/P217A/Q86G/Q94H/R138H/R169H/T345S); assay: MHC-I stabilization assay using human TAP-deficient T2 cells; assay type: cell-based; details: flow cytometry
T2 construct: endogenous in cells; host or cells: T2 cells (human, TAP-deficient)
Experimental: as §2

[1] = system: PBMCs from healthy HLA-A*02:01 individuals; assay: Human PBMC in vitro restimulation, IFNγ+ CD8+ T cells by intracellular staining; assay type: cell-based; details: six healthy donors; significant (P<0.05) or trending (P<0.30)
Experimental: Freshly isolated or thawed cryopreserved healthy donor PBMCs were restimulated with cytokines and peptides as previously described (14). Briefly, on day 0, PBMCs were resuspended in X-VIVO15 media (Lonza) and seeded at 105 per well of a 96 U-bottom plate with 1000 IU/mL GM-CSF (Sanofi), 500 IU/mL IL-4 (R&D Systems) and 50 ng/mL Flt3L (R&D Systems). On day 1, media was refreshed with 0.1 μg/mL LPS (Invivogen), 10 μM R848 (Invivogen), 5 μg/mL IL-10 (R&D Systems) and 1 μg/mL of indicated peptides, and incubated for 24 hours. The CMV, EBV, Flu, Tetanus (CEFT) and the myelin oligodendrocyte glycoprotein (MOG) peptide pools (JPT Technologies) were used as positive and negative controls, respectively. On days 2 and 5, half the media was refreshed with RPMI (Gibco) containing 10% human serum (Gemini Bio-Products), 10 ug/ml gentamycin (Gibco), HEPES (Gibco), GlutaMAX (Gibco) and hIL-2 and hIL-7 to a final concentration of 10 IU/mL and 10 ng/mL, respectively (R&D Systems). On day 8, the media was refreshed without cytokines. On day 10, PBMCs were restimulated with corresponding peptides in the presence of 1 μg/mL of anti-hCD28 and anti-hCD49d (BD Biosciences). As controls, some cells were stimulated with PMA (Sigma-Aldrich, 50 ng/mL) and ionomycin (Sigma-Aldrich, 1 μg/mL). […] Data was acquired using the BD Fortessa and the data was analyzed on FlowJo V10 (TreeStar). […]

[2] = molecular target: T3, murine H-2Kb on TAP-deficient RMA/S cells (murine, UniProt P01887 21-119; P01901 22-305); assay: H-2Kb stabilization assay on RMA/S cells in absence of serum, flow cytometry
T3 construct: whole, on cells;extracellular; MHC class I molecule; surface level read with antibody clone AF6-88.5 by flow cytometry
T3 sequence (MHC heavy, looked up): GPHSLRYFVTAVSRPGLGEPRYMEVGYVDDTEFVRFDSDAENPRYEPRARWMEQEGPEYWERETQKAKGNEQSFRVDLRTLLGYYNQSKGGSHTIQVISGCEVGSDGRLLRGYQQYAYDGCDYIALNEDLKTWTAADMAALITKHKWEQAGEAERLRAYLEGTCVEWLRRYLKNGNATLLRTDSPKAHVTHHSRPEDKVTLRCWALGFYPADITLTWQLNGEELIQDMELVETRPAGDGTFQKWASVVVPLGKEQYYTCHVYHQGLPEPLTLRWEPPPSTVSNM
T3 sequence (b2m, looked up): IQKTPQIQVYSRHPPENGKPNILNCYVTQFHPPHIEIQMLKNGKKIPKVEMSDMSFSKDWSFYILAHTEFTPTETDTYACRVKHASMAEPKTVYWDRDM
Description: To test peptide binding to murine H-2Kb or human HLA-A*02:01, TAP-deficient RMA/S and T2 cells were used, respectively, as previously reported (59, 60).

[3] = molecular target: T3, murine H-2Kb on TAP-deficient RMA/S …; assay: H-2Kb stabilization assay on RMA/S cells, flow cytometry
[4] = prophylactic: three doses prior to tumor implantation, vs adjuvant alone
[5] = therapeutic: multiple doses after tumors allowed to grow, vs adjuvant alone
[6] = initial CALR9p2(T5F) followed by two CALR9p2 boosts
[7] = two doses of CALR9p2(T5F) and a final CALR9p2 boost

RMMRFKMRM [CALR9p2(T5F)]
survival (RMA/SpER-CALR9p2 tumors; prophylactic: three doses prior to tumor implantation): differences in survival were not significant
tumor growth (RMA/SpER-CALR9p2 tumors; [4]): grew significantly slower
effect of the vaccine (RMA/SpER-CALR9p2 tumors; therapeutic, administered with immune checkpoint blockade using a PD-1 antibody): even more prominent
survival (RMA/SpER-CALR9p2 tumors; [5]): improved survival
tumor growth (RMA/SpER-CALR9p2 tumors; [5]): tumors grew significantly slower
CD8+ T cell response to CALR9p2(T5F) (C57BL/6J mice; [6]): very small response to the CALR9p2(T5F) peptide
cross-reactive CD8+ T cell response to CALR9p2 (C57BL/6J mice; [6]): no detectable cross-reactive CD8+ T cell responses to CALR9p2 in vitro
CALR9p2-specific CD8+ T cell response (C57BL/6J mice): elicited a CD8+ T cell capable of cross-reacting with CALR9p2 in vitro
CD8+ T cell response to CALR9p2(T5F) (C57BL/6J mice; [7]): intermediate response to CALR9p2(T5F)
cross-reactive CD8+ T cell response to CALR9p2 (C57BL/6J mice; [7]): no detectable cross-reactive CD8+ T cells
IFNγ restimulation by CALR9p2 of CALR9p2(T5F)-tetramer-specific CD8+ T cells (CD8+ T cells; CD8+ T cells from CALR9p2(T5F)-immunized mice): The only CALR9p2-potentiated CD8+ T cells were those also staining for the CALR9p2(T5F)-tetramer
Tim3 and Pd1 levels of CALR9p2-specific vs CALR9p2(T5F)-specific CD8+ T cells (CD8+ T cells; after restimulation): equal levels of Tim3 and Pd1
killing of tumor cells pulsed with the CALR9p2 peptide (peptide-pulsed B16 cells): killing tumor cells pulsed with the CALR9p2 peptide
fold H-2Kb stabilization compared to CALR9p2 (H-2Kb; absence of serum): tenfold

RMMRTKMRM [CALR9p2, 9mer CALRMUT peptide starting at position 2, parental native peptide]
binding to HLA-A*02:01 (stabilization) (HLA-A*02:01): weak binding signal compared to DMSO control
tumor growth (RMA/SpER-CALR9p2 tumors; [4]): grew at the same rate
CD8+ T cell responses (IFNγ) to CALR9p2 alone [1]: three of the six healthy donors
CALR9p2-specific CD8+ T cell response (C57BL/6J mice): did not elicit any CALR9p2-specific CD8+ T cell response
H-2Kb stabilization (H-2Kb; in the presence of serum): did not elicit detectable H-2Kb stabilization
H-2Kb stabilization (H-2Kb; serum omitted): poor but still detectable binding
peptide concentration at which H-2Kb was stabilized (H-2Kb; serum omitted, only the highest concentration): 100 µg/mL

SIINFEKL [chicken ovalbumin (OVA)-derived peptide, positive control]
H-2Kb stabilization (H-2Kb; in the presence of serum): strong binding

RMMRFKMRM (Custom synthetic peptide) [CALR9p2(T5F) heteroclitic peptide (RMMRFKMRM)]
fold H-2Kb stabilization compared to CALR9p2 [2]: ~10 fold

SIINFEKL (Custom order from Genscript) [chicken ovalbumin (OVA)-derived peptide SIINFEKL]
binding result [3]: binds
